Reference: PubChem BioAssay AID1963980 (Molecular Pharmacology Branch, DTP, NCI, 2024)

Test system: 475296-252-R-J1-PDC spheroid viability
Assay: Anticancer human tumor 475296-252-R-J1-PDC patient-derived rectal carcinoma cell line growth inhibition [PI3K]
Details: spheroids with HUVEC and MSC; for IC50: curve of first compound; for viability, T/C: stronger effect = lower value; active = viability on the fitted dose curve at most 10% of control; inactive = the rest
Text: Combinatorial screen of targeted agents with the PI3K inhibitors inavolisib, alpelisib, duvelisib, and copanlisib in multi-cell type tumor spheroids
A high-throughput screen of multi-cell type tumor spheroids was designed to identify active combinations of targeted small molecules and PI3K pathway inhibitors. Complex spheroids include a stromal component modeled by human endothelial cells (HUVEC) and fibroblasts modeled by human mesenchymal stem cells (MSCs). The concentration ranges selected for each drug and investigational agent were based upon clinically achievable concentrations if the clinical Cmax of the agent was known.
Compounds. The drugs and investigational agents: inavolisib (NSC800729), alpelisib (NSC765974), duvelisib (NSC772469), copanlisib (NSC816437), ipatasertib (NSC767898), afuresertib (NSC778305), talazoparib (NSC767125), sapanisertib (NSC764658), selumetinib (NSC741078), tovorafenib (DAY101, NSC766906), vemurafenib (NSC761431), ravoxertinib (NSC781343), sotorasib (NSC818433), MRTX1133 (NSC 836407), abemaciclib (NSC 768073), palbociclib (NSC758247), venetoclax (NSC 766270), SY5609 (NSC837396), enzalutamide (NSC755605), and darolutamide (NSC825331), were obtained from the National Cancer Institute (NCI) Developmental Therapeutics Program Chemical Repository. The FDA-approved anticancer drug set is available from the NCI Developmental Therapeutics Program. […] The stock solutions were prepared in dimethyl sulfoxide (DMSO, Sigma-Aldrich, St. Louis, MO, cat. D2650) at 800-fold the tested concentration and stored at -70 degrees C prior to their use. All drugs and investigational agents were tested over a range starting from a high concentration at or near the clinical Cmax and decreasing in half-log increments. If the clinical Cmax for an agent had not been determined, the highest concentration tested was 10 microM.
Cell Culture. All cells were maintained in an incubator at 37 degrees C and 5% CO2 with 95% humidity. The PDC lines were cultured according to standard operating procedures established by the NCI PDMR (https://pdmr.cancer.gov/sops/default.htm). All PDCs were thawed and cultured in Matrigel-coated flasks prepared with a working solution of 1X Ham's F-12 nutrient mix, without supplementation (Invitrogen, Waltham, MA, cat. 11765054), 100 U/mL penicillin-streptomycin (Invitrogen, cat. 15140122), and 2.5% Matrigel (Corning Inc., Corning, NY, cat. 354248) for the first three passages. The 354836-022-R-J1-PDC, 475296-252-R-J1-PDC, and 997726-040-R-J2-PDC lines were cultured in 6A media, which includes advanced DMEM/F-12 (Thermo Fisher Scientific, cat. 12634028), 10 mM HEPES (Thermo Fisher Scientific, cat. 15630080), 1X GlutaMAX supplement (Thermo Fisher Scientific, cat. 35050061), 0.1 mg/mL primocin (InvivoGen, San Diego, CA, cat. ant-pm-2), 10% defined fetal bovine serum, heat inactivated (HyClone Laboratories Inc., Logan, UT, cat. SH30070.03HI), 50% L-WRN conditioned media (ATCC, cat. CRL-3276), 1.25 mM N-Acetyl-L-cysteine (Sigma-Aldrich, cat. A9165), 10 mM nicotinamide (Sigma-Aldrich, cat. N0636), 1X B-27 supplement (Thermo Fisher Scientific, cat. 17504044), 1X N-2 supplement (Thermo Fisher Scientific, cat. 17502048), and 10 microM Y-27632 dihydrochloride (Tocris Bioscience, Bristol, United Kingdom, cat. 1254). The 624824-186-R-J2-PDC line was cultured in 6C/Colon 1B media, which includes all 6A media components plus 50 ng/mL human EGF recombinant protein (Thermo Fisher Scientific, cat. PHG0311). […]

[1] = second compound 0.00316 µM, first compound 0.00316 µM
[2] = second compound 0.00316 µM, first compound 0.01 µM
[3] = second compound 0.00316 µM, first compound 0.0316 µM
[4] = second compound 0.00316 µM, first compound 0.1 µM
[5] = second compound 0.01 µM, first compound 0.00316 µM
[6] = second compound 0.01 µM, first compound 0.01 µM
[7] = second compound 0.01 µM, first compound 0.0316 µM
[8] = second compound 0.01 µM, first compound 0.1 µM
[9] = second compound 0.0316 µM, first compound 0.00316 µM
[10] = second compound 0.0316 µM, first compound 0.01 µM
[11] = second compound 0.0316 µM, first compound 0.0316 µM
[12] = second compound 0.0316 µM, first compound 0.1 µM
[13] = second compound 0.1 µM, first compound 0.00316 µM
[14] = second compound 0.1 µM, first compound 0.01 µM
[15] = second compound 0.1 µM, first compound 0.0316 µM
[16] = second compound 0.1 µM, first compound 0.1 µM
[17] = second compound 0.316 µM, first compound 0.00316 µM
[18] = second compound 0.316 µM, first compound 0.01 µM
[19] = second compound 0.316 µM, first compound 0.0316 µM
[20] = second compound 0.316 µM, first compound 0.1 µM
[21] = second compound 1 µM, first compound 0.00316 µM
[22] = second compound 1 µM, first compound 0.01 µM
[23] = second compound 1 µM, first compound 0.0316 µM
[24] = second compound 1 µM, first compound 0.1 µM
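Note: spheroids exposed to agents for seven days before readout.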

Cn1ncnc1[C@H]1c2n[nH]c(=O)c3cc(F)cc(c23)N[C@@H]1c1ccc(F)cc1 + CC(Nc1ccc2c(c1)OCCn1cc(N3C(=O)OCC3C(F)F)nc1-2)C(N)=O
> 100 nM: IC50 (second compound 0.00316 µM) | IC50 (second compound 0.01 µM) | IC50 (second compound 0.0316 µM) | IC50 (second compound 0.1 µM) | IC50 (second compound 0.316 µM) | IC50 (second compound 1 µM)
inactive: viability, T/C (second compound 0.00316 µM, first compound 0.000316 µM) 88.1% | viability, T/C (second compound 0.00316 µM, first compound 0.001 µM) 84.3% | viability, T/C [1] 94.8% | viability, T/C [2] 93.2% | viability, T/C [3] 97.2% | viability, T/C [4] 90.1% | viability, T/C (second compound 0.01 µM, first compound 0.000316 µM) 98.4% | viability, T/C (second compound 0.01 µM, first compound 0.001 µM) 82.9% | viability, T/C [5] 89.2% | viability, T/C [6] 95.1% | viability, T/C [7] 92.8% | viability, T/C [8] 92% | viability, T/C (second compound 0.0316 µM, first compound 0.000316 µM) 86.1% | viability, T/C (second compound 0.0316 µM, first compound 0.001 µM) 104% | viability, T/C [9] 88.8% | viability, T/C [10] 87.4% | viability, T/C [11] 88% | viability, T/C [12] 96.6% | viability, T/C (second compound 0.1 µM, first compound 0.000316 µM) 92.4% | viability, T/C (second compound 0.1 µM, first compound 0.001 µM) 101% | viability, T/C [13] 93.6% | viability, T/C [14] 92.6% | viability, T/C [15] 89.7% | viability, T/C [16] 97.9% | viability, T/C (second compound 0.316 µM, first compound 0.000316 µM) 81.8% | viability, T/C (second compound 0.316 µM, first compound 0.001 µM) 83.4% | viability, T/C [17] 86.1% | viability, T/C [18] 84.6% | viability, T/C [19] 89.8% | viability, T/C [20] 81.6% | viability, T/C (second compound 1 µM, first compound 0.000316 µM) 84.5% | viability, T/C (second compound 1 µM, first compound 0.001 µM) 71.6% | viability, T/C [21] 87% | viability, T/C [22] 89.1% | viability, T/C [23] 85% | viability, T/C [24] 79.6%

CCN1CCN(Cc2ccc(Nc3ncc(F)c(-c4cc(F)c5nc(C)n(C(C)C)c5c4)n3)nc2)CC1 + COc1c(OCCCN2CCOCC2)ccc2c3n(c(=NC(=O)c4cnc(N)nc4)nc12)CCN3
inactive: viability, T/C [1] 99.3% | viability, T/C [2] 102% | viability, T/C [3] 97.5% | viability, T/C [4] 104% | viability, T/C (second compound 0.00316 µM, first compound 0.316 µM) 100% | viability, T/C (second compound 0.00316 µM, first compound 1 µM) 90.6% | viability, T/C [5] 95.6% | viability, T/C [6] 95% | viability, T/C [7] 93.1% | viability, T/C [8] 95.2% | viability, T/C (second compound 0.01 µM, first compound 0.316 µM) 104% | viability, T/C (second compound 0.01 µM, first compound 1 µM) 76.4% | viability, T/C [9] 83.8% | viability, T/C [10] 92.5% | viability, T/C [11] 99.2% | viability, T/C [12] 95.1% | viability, T/C (second compound 0.0316 µM, first compound 0.316 µM) 86.9% | viability, T/C (second compound 0.0316 µM, first compound 1 µM) 64.4% | viability, T/C [13] 86.3% | viability, T/C [14] 94.4% | viability, T/C [15] 84.8% | viability, T/C [16] 87.2% | viability, T/C (second compound 0.1 µM, first compound 0.316 µM) 85.9% | viability, T/C (second compound 0.1 µM, first compound 1 µM) 63.8% | viability, T/C [17] 74.3% | viability, T/C [18] 78.4% | viability, T/C [19] 72.5% | viability, T/C [20] 65.3% | viability, T/C (second compound 0.316 µM, first compound 0.316 µM) 63% | viability, T/C (second compound 0.316 µM, first compound 1 µM) 50% | viability, T/C [21] 62.8% | viability, T/C [22] 58.2% | viability, T/C [23] 63.6% | viability, T/C [24] 55.8% | viability, T/C (second compound 1 µM, first compound 0.316 µM) 56% | viability, T/C (second compound 1 µM, first compound 1 µM) 55.2%
> 1000 nM: IC50 (second compound 0.00316 µM) | IC50 (second compound 0.01 µM) | IC50 (second compound 0.0316 µM) | IC50 (second compound 0.1 µM) | IC50 (second compound 0.316 µM) | IC50 (second compound 1 µM)
